Measured values from patent US12240844B2 (Voronoi, Inc., priority 2019, dated 2025).
pIC50: −log10 of the molar value.

How the values were obtained:
[1] = target: T1, human GST-DYRK1A (full length) (Homo sapiens, UniProt Q13627); assay: GST-DYRK1A enzyme inhibition, ADP-Glo kinase assay; format: biochemical; conditions: read-out: DYRK1 IC50
T1 construct: purified human GST-DYRK1A (full length, Thermo scientifics) enzyme; GST; purchased Thermo scientifics
Procedure, shortened: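 ADP-Glo luminescence quantified kinase activity after a 1 h, 25° C reaction of 10 ng full-length GST-tagged human DYRK1A, substrate and 10 uM ATP in Tris-HCl buffer pH 7.4 with MgCl2, BSA and DTT. Triplicate IC50 values (nM) calculated relative to untreated solvent control.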

[2] = target: T2, human GST-CLK1 (129-end) (Homo sapiens, UniProt P49759); assay: GST-CLK1 enzyme inhibition, ADP-Glo kinase assay; format: biochemical; conditions: ATP 10 uM
T2 construct: purified human GST-CLK1 (129-end, Signalchem) enzyme; GST; purchased Signalchem
Procedure, shortened: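 ADP formation was read by ADP-Glo luminescence after 1 h at 25° C with 3 ng human GST-CLK1 (129-end), substrate and 10 uM ATP in Tris pH 7.4 buffer containing MgCl2, BSA and DTT. Inhibition relative to untreated solvent control gave IC50 (nM), run in triplicate.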

[3] = system: MDA-MB-231 cell line; assay: MDA-MB-231 cancer cell proliferation inhibition (Cell Titer-Glo); format: cell-based; conditions: Homo sapiens, MDA-MB-231 triple-negative breast cancer cell line, 72 hours
Procedure, shortened: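 GI50 comes from CellTiter-Glo luminescence, read 10 min after reagent addition at RT, following 72 h compound treatment. Eleven concentrations were used (⅓ steps, highest 10 μM final) on 2000 cells/well. MDA-MB-231 and MDA-MB-468 were grown in DMEM, SHP-77 in RPMI.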

[4] = system: SHP-77; assay: SHP-77 cancer cell proliferation inhibition (Cell Titer-Glo); format: cell-based; conditions: Homo sapiens, SHP77, SHP-77 small cell lung cancer cell line, 72 hours
Experimental: In order to evaluate the cancer cell proliferation inhibitory activity of the compounds of the present invention, the following experiments were performed.
To evaluate the cancer cell proliferation inhibitory effect, the cell growth rate analysis was performed while culturing MDA-MB-231 cell line (Korean Cell Line Bank #30026) and MDA-MB-468 cell line as the triple-negative breast cancer cell line, and SHP-77 (ATCC #CRL-2195) as the small cell lung cancer cell line in DMEM (HyClone #SH30243) and RPMI medium (HyClone #SH3027.01), respectively. More specifically, the cell lines were each plated at 2000 cells/100 μl in each well of a 96-well flat-bottom plate (coming #3903), and then the example compounds having eleven concentrations which were diluted by ⅓ so that the final concentrations were 10.000000, 3.333333, 1.111111, 0.370370, 0.123457, 0.041152, 0.013717, 0.004572, 0.001524, 0.000508 and 0.000169 μM were treated. After 72 hours, 100 μl of Cell Titer-Glo (Promega G7573) was treated, incubated at RT for 10 minutes, and then luminescence was measured using a microplate reader. The measured luminescence degree was calculated as GI50 using Prism (version 8.2 GraphPad) software.
In the table below, the following designations were used for the evaluation of proliferation inhibitory activity.

[5] = system: human DYRK1A and Tau; assay: Tau phosphorylation inhibition, ClariCELL Kinase Cell-Based Assay (Carnabio)
Experimental: Tau phosphorylation inhibitory efficacy was measured using the ClariCELL™ Kinase Cell-Based Assay service of Carnabio, located in the United States. The compounds are exposed to human embryonic kidney ([…]) cells transiently expressing human DYRK1A and Tau, and then the cells are lysed to release cellular proteins. At this time, the released Tau is captured on a plate, and the degree of phosphorylation is quantified by ELISA using an antibody specific for Tau phosphorylation.

[6] = target: LRRK2 (Homo sapiens, UniProt Q5S007); assay: LRRK2 enzyme inhibition, ADP-Glo kinase assay; format: biochemical; parameters: purchased Invitrogen PR8604B
Procedure, shortened: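 ADP-Glo luminescence read after 2 h at 25° C, 10 μM ATP, 25 ng purified human LRRK2 and […] substrate in Tris-HCl pH7.4 buffer with MgCl2, BSA, DTT. Twelve final concentrations, 50 μM down to 0.000001024 μM; IC50 (nM) from inhibition relative to untreated solvent control.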

[7] = target: LRRK2 (G2019S) (Homo sapiens, UniProt Q5S007, G2019S); assay: LRRK2 G2019S enzyme inhibition, ADP-Glo kinase assay; format: biochemical; parameters: purchased SignalChem L10-12GG
Procedure, shortened: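 Activity read as ADP-Glo luminescence, normalized to untreated solvent control, with IC50 (nM) fitted over 12 final compound levels (top 50 μM). Reaction: 2 h, 25° C, human LRRK2 G2019S 16 ng, ATP 25 μM, substrate 0.2 μg, in Tris-HCl pH 7.4 with MgCl2, BSA and DTT.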

Sequence of LRRK2 (Q5S007 970-2527 limits assumed): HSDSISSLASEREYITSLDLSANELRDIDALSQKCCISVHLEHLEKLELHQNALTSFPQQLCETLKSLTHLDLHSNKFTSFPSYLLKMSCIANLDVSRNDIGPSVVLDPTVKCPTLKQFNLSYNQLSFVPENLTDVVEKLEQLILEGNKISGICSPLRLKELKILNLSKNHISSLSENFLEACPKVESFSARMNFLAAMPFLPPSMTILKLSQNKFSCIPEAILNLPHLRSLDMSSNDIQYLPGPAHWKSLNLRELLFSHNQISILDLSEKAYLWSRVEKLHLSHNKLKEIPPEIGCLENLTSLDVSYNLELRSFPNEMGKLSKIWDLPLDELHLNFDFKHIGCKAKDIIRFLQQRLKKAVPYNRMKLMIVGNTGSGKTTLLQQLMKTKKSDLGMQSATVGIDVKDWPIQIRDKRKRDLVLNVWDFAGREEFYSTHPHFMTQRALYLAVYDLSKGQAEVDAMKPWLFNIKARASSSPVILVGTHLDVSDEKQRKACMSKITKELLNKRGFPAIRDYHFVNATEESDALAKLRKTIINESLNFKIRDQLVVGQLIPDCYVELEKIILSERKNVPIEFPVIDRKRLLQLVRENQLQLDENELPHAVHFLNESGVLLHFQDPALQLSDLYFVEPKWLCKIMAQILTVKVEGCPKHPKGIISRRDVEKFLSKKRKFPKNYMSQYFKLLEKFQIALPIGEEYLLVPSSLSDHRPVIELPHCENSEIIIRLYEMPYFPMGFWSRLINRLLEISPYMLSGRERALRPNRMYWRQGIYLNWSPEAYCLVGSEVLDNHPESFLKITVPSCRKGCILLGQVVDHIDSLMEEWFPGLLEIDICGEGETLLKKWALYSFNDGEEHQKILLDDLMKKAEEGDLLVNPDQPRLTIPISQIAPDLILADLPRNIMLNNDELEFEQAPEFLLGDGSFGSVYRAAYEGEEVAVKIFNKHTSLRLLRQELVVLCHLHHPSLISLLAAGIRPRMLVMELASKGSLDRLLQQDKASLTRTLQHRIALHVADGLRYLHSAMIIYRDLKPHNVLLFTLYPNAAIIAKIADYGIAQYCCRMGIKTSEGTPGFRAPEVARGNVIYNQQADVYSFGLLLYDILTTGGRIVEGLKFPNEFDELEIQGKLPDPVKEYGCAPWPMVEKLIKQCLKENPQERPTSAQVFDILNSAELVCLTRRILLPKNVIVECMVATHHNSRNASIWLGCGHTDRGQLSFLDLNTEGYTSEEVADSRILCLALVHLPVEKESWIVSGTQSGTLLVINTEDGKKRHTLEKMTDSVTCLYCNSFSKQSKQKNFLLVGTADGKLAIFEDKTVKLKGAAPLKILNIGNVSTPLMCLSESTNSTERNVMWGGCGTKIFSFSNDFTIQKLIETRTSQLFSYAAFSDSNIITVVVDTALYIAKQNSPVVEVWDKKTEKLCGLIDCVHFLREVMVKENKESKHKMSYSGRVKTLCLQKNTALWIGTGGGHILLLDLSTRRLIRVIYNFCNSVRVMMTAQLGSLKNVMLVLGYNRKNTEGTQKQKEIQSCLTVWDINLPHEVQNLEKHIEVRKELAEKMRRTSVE
T2 sequence (P49759 129-484 limits assumed): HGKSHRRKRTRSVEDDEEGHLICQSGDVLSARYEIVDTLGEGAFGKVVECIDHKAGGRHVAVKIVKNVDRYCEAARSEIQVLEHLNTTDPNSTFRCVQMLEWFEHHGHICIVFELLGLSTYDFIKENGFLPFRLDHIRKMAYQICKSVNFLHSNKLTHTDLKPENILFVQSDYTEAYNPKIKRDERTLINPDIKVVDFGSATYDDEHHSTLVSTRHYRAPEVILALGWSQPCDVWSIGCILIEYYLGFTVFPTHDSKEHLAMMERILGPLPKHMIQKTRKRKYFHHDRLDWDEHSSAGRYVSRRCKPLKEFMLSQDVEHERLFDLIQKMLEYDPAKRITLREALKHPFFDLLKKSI
Sequence of LRRK2 (G2019S) (Q5S007 970-2527 G2019S limits assumed): as the sequence (Q5S007 970-2527 limits assumed) above, with G1050S counted along it

CCCNc1cc(Nc2ccc(S(=O)(=O)N3CCC(N4CCOCC4)CC3)cc2OC)nc2[nH]cc(C(F)(F)F)c12 [Example 40, N^6-(2-methoxy-4-((4-morpholinopiperidin-1-yl)sulfonyl)phenyl)-N^4-propyl-3-(trifluoromethyl)-1H-pyrrolo[2,3-b]pyridine-4,6-diamine]
pIC50 [1]: > 7.00
pIC50 [2]: 6.00 to 6.52
GI50 [3]: 301 to 1000 nM
GI50 [4]: 301 to 1000 nM
inhibition at 0.25 µM [5]: 9.2%
inhibition at 0.5 µM [5]: 15.2%
inhibition at 1 µM [5]: 38.7%
pIC50 [6]: 6.00 to 6.52

CCNc1cc(Nc2ccc(S(=O)(=O)N3CCC(N4CCOCC4)CC3)cc2OC)nc2[nH]cc(C(F)(F)F)c12 [Example 185, N^4-ethyl-N^6-(2-methoxy-4-((4-morpholinopiperidin-1-yl)sulfonyl)phenyl)-3-(trifluoromethyl)-1H-pyrrolo[2,3-b]pyridine-4,6-diamine]
pIC50 [1]: 6.52 to 7.00
pIC50 [2]: 6.52 to 7.00
GI50 [3]: 51 to 100 nM
GI50 [4]: < 50 nM
inhibition at 0.25 µM [5]: 22.9%
inhibition at 0.5 µM [5]: 37.7%
inhibition at 1 µM [5]: 56.2%
pIC50 [6]: > 7.00
pIC50 [7]: > 7.00

CCCNc1cc(Nc2ccc(S(=O)(=O)N3CCOCC3)cc2OC)nc2[nH]cc(C(F)(F)F)c12 [Example 199, N^6-(2-methoxy-4-(morpholinosulfonyl)phenyl)-N^4-propyl-3-(trifluoromethyl)-1H-pyrrolo[2,3-b]pyridine-4,6-diamine]
pIC50 [1]: 6.00 to 6.52
pIC50 [2]: 6.00 to 6.52
GI50 [3]: 301 to 1000 nM
GI50 [4]: 301 to 1000 nM
pIC50 [6]: 6.00 to 6.52
pIC50 [7]: 6.00 to 6.52

CCNc1cc(Nc2ccc(S(=O)(=O)N3CCOCC3)c3c2OCCO3)nc2[nH]cc(C(F)(F)F)c12 [Example 99, N^4-ethyl-N^6-(8-(morpholonosulfonyl)-2,3-dihydrobenzo[b] [1,4]dioxin-5-yl)-3-(trifluoromethyl)-1H-pyrrolo[2,3-b]pyridine-4,6-diamine]
pIC50 [1]: 6.00 to 6.52
pIC50 [2]: 6.00 to 6.52
GI50 [3]: 301 to 1000 nM
GI50 [4]: 301 to 1000 nM
pIC50 [6]: 6.00 to 6.52
pIC50 [7]: 6.00 to 6.52

CCNc1cc(Nc2ccc(S(=O)(=O)N3CCOCC3)cc2OC)nc2[nH]cc(C(F)(F)F)c12 [Example 179, N^4-ethyl-N^6-(2-methoxy-4-(morpholinosulfonyl)phenyl)-3-(trifluoromethyl)-1H-pyrrolo[2,3-b]pyridine-4,6-diamine]
pIC50 [1]: 6.00 to 6.52
pIC50 [2]: 6.00 to 6.52
GI50 [3]: 301 to 1000 nM
GI50 [4]: 301 to 1000 nM
pIC50 [6]: 6.00 to 6.52
pIC50 [7]: 6.00 to 6.52

COCCNc1cc(Nc2ccc(S(=O)(=O)N3CCOCC3)cc2OC)nc2[nH]cc(C(F)(F)F)c12 [Example 195, N^6-(2-methoxy-4-(morpholinosulfonyl)phenyl)-N^4-(2-methoxyethyl)-3-(trifluoromethyl)-1H-pyrrolo[2,3-b]pyridine-4,6-diamine]
pIC50 [1]: 6.00 to 6.52
pIC50 [2]: 6.00 to 6.52
GI50 [3]: 301 to 1000 nM
GI50 [4]: 101 to 300 nM
pIC50 [6]: 6.00 to 6.52
pIC50 [7]: 6.00 to 6.52
